What was measured:
Assay type in all cases: in vivo
Long Evans rats [1] = assay: Cocaine self-administration under PR schedule of reinforcement
Procedure: In Vivo Studies. Effect on Cocaine-Self administration. These studies were performed using Long Evans rats using standard protocols (Quinlan M. G. et al. Psychopharmacol. 2004, 175, 53-59; Ranaldi, R. et al. Behav. Pharmacol. 2011, 22, 347-353). Cocaine self-administration sessions were conducted in sixteen operant chambers; eight measuring 30×22×27 cm (l×w×h) and the other eight measuring 26×26×30 cm (l×w×h). Each chamber was situated inside a sound-attenuating box and was equipped with two retractable levers, a white light above each lever, and a tether. Polyethylene tubing, covered by the tether, connected the animal, through a fluid swivel, to a syringe in a syringe pump (Razel, 3.33 rpm). […] Each animal was tested with one dose of the D3 antagonist, randomly determined, at as many of the three cocaine doses as possible. After a particular test the animal's cocaine dose was changed to another one (randomly determined) and its baseline BP on the new dose was established. BP during the test session was expressed as the percentage of the average BP obtained during the last three baseline sessions. Percentage of baseline BP and final ratio (i.e. the number of lever presses required for the BP infusion) were analyzed using separate two-way analyses of variance (ANOVAs) with dose of 113 and dose of cocaine as between-groups factors. […]

Long Evans rats [2] = assay: Cocaine-induced locomotor activity; conditions: 3.75, 7.5 or 15 mg/kg 10 minutes before 10 mg/kg of cocaine; p<0.05
Procedure: (§1) In Vivo Studies. Effect on Locomotor Activity. These studies were performed using Long Evans rats using standard protocols. Locomotor activity chambers measuring 43×43×30 cm (l×w×h) were used for the locomotor activity experiments. Each chamber was equipped with eight photo-emitters positioned along the length of the chamber 6 cm above the floor, each paired directly opposite a photocell. Locomotor activity counts were registered when adjacent beams were broken consecutively. Before receiving any drug, the animals (n=96) were placed in locomotor activity chambers for habituation, for 2 hours per day for 3 consecutive days. Based on the locomotor activity score obtained during the third habituation session, animals were assigned into one of […]. […] For the 113 alone experiments, each of the four groups received one of 4 doses of 113 (0, 3.75, 7.5 or 15 mg/kg) 10 minutes prior to placement in the activity chambers. For the 113 cocaine interaction experiments, each of 4 groups were injected with one of the 4 doses of the compound (0, 3.75, 7.5 or 15 mg/kg) 10 minutes before receiving 10 mg/kg of cocaine as the second injection. […] The locomotor counts in the 113 alone and 113/cocaine experiments were analyzed using two separate mixed-design ANOVAs with 113 dose (between-groups) and 5-min bins (repeated measures) as factors. […]

Long Evans rats [3] = assay: Food self-administration under PR schedule of reinforcement; conditions: 3.75 mg dose vs 0, t(7)=0.43, p=0.66
Procedure: In Vivo Studies. Effect on Food-Self administration. These studies were performed using Long Evans rats using standard protocols. Training and testing took place in ventilated and sound-attenuated operant chambers measuring 30×21×18 cm. Each chamber contained two levers, one light above each of the levers, and a food trough. Each lever was positioned 2.5 cm from the rod floor and the food trough (measuring 5×5 cm) was centered between the two levers. A different set of animals (n=8) was trained to press a lever reinforced by food under a FR1 schedule of reinforcement. […] Percentage of baseline BPs for food self-administration was analyzed using a dependent measures t-test comparing the 0 and 3.75 mg doses of 113.

Long Evans rats [4] = assay: Spontaneous locomotor activity; conditions: all doses tested (3.75, 7.5, 15 mg/kg), any time during the test sessions
Procedure: as §1

Rats = assay: Cue-induced reinstatement of cocaine-seeking; conditions: ip injection of one of 3 doses 20 minutes before 1-h reinstatement session
Procedure: In Vivo Studies. Effect on Reinstatement. Rats were trained to self-administer cocaine (1.0 mg/kg/injection) under a FR1 schedule of reinforcement in daily 3-h sessions and, after stable responding was established (as described above) the schedule was changed to FR3. After stable responding under the FR3 schedule was established, extinction training began. Stable responding was defined as follows: 12 consecutive sessions in which total rewards per session was greater than 20 and in which total rewards per session for the last three sessions was within ±10% of the mean of the three sessions. […] After extinction criteria were met each rat was tested in one 1-h reinstatement session; each rat received an ip injection of vehicle or one of 3 doses of the test compound and 20 minutes later was placed in the operant chamber. At the start of the reinstatement session the cocaine-associated cues (light on for 20 s and pump on for 4.5 s) were presented twice, once at 25 sec and again at 2 min into the session. Presses on the active lever illuminated the light and activated the pump.

In the case of `CC(C)(C)c1nc(N2CCN(CCCCNC(=O)c3cn4ccccc4n3)CC2)cc(C(F)(F)F)n1` [Compound 113, N-(4-(4-(2-(tert-Butyl)-6-(trifluoromethyl)pyrimidin-4-yl)piperazin-1-yl)butyl)imidazo[1,2-a]pyridine-2-carboxamide], the “percentage of baseline BP for cocaine under PR schedule, dose relation” value (Long Evans rats [1]; 3.75, 7.5 and 15 mg/kg intraperitoneally 10 minutes prior to session, cocaine 0.375, 0.75 or […]) is reported as “dose-related reduction in the percentage of baseline BPs”, the “percentage of baseline BPs for cocaine compared to vehicle (Tukey post hoc)” value (Long Evans rats [1]; 3.75, 7.5 or 15 mg of 113, ps<0.05) is reported as “significant reductions in the percentage of baseline BPs” and the cocaine-induced locomotor activity (Long Evans rats [2]) is reported as “significantly reduce cocaine-induced locomotor activity in a dose-related fashion”. For the same compound, the “percentage of baseline BP for food self-administration” value (Long Evans rats [3]) was “did not affect food self-administration”, the “spontaneous locomotor activity, overall” value (Long Evans rats [4]) was “none of the doses tested produced significant effects on spontaneous locomotor activity” and the “cue-induced reinstatement (presses on the active lever)” value (Rats) was “strongly reduced in a dose-related fashion”.
